The results in this text go back to US8987195B2 (priority 2012, dated 2015).

Molecules are shown by their SMILES. Read-outs that look alike come from different tables or passages of the source.

One test relates to HCV genotype 1b replicon. The test is described as follows: HCV replicon assay, genotype 1b replicon EC50. Particulars: Hepatitis C virus, genotype 1b replicon, read-out: EC50 [gt-1b]. The class given is cell-based, Hepatitis C virus. Summed up:
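Cells harbouring a stable replicon are grown under G418 selection, then plated with test compound in G418-free medium for 24-48 hours. After washing and lysis, RNA or luciferase signal is measured and expressed as percent of DMSO control to give EC50.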
(In general: A replicon is a self-replicating genome or part of one, used to study replication in cells.)

Test [1] has as its target HCV NS3/4A protease genotype 1b (Hepatitis C virus genotype 1b, UniProt P26663). The test is described as follows: HCV NS3/4A protease time-resolved fluorescence (TRF) assay, Ki against genotype 1b. The class given is biochemical. Particulars: IC50 [gt-1b] (nM), NS3/4A genotype 1b, enzyme 0.2 nM. Summed up:
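Enzyme 0.2 nM 1b / 0.4 nM A156T / 0.025 nM 3a; 30 min preinc. w/ cpd; 25 nM TRF peptide; 2.5 h RT; ex 340/em 615 time-delayed; 4-param IC50 → Ki = IC50/(1+[S]/KM).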

Consider `COc1ccc2nc(C(C)C)c3c(c2c1)C(F)(F)C[C@]1(C[C@H]2C(=O)N[C@]4(C(=O)NS(=O)(=O)C5(C)CC5)C[C@H]4/C=C\CCCCC[C@H](NC(=O)OC(C)(C)CCS(=O)(=O)C(C)C)C(=O)N2C1)O3` [Example 281, 2-methyl-4-(propan-2-ylsulfonyl)butan-2-yl [(2S,6S,12Z,13aS,14aR,16aS)-1′,1′-difluoro-9′-methoxy-14a-{[(1-methylcyclopropyl)sulfonyl]carbamoyl}-5,16-dioxo-5′-(propan-2-yl)-1,1′,2′,5,6,7,8,9,10,11,13a,14,14a,15,16,16a-hexadecahydrospiro[cyclopropa[e]pyrrolo[1,2-a][1,4]diazacyclopentadecine-2,3′-pyrano[2,3-c]quinolin]-6-yl]carbamate], for which the EC50 (as a rule, the concentration needed to bring the measured effect to its halfway point) in the test on HCV genotype 1b replicon turned out to be 10.8 nM. For the same compound, in test [1], the IC50 (usually the point on the concentration scale where inhibition reaches its midpoint) was found to be 0.06 nM.
Turning to `Cc1nc2ccccc2c2c1O[C@]1(CC2)C[C@H]2C(=O)N[C@]3(C(=O)NS(=O)(=O)C4(C)CC4)C[C@H]3/C=C\CCCCC[C@H](NC(=O)NC(C)C)C(=O)N2C1` [Example 282, (2R,6S,12Z,13aS,14aR,16aS)-5′-methyl-N-[(1-methylcyclopropyl)sulfonyl]-5,16-dioxo-6-[(propan-2-ylcarbamoyl)amino]-1,1′,2′,6,7,8,9,10,11,13a,14,15,16,16a-tetradecahydrospiro[cyclopropa[e]pyrrolo[1,2-a][1,4]diazacyclopentadecine-2,3′-pyrano[2,3-c]quinoline]-14a(5H)-carboxamide], in the test with HCV genotype 1b replicon (HCOOH salt), the EC50 came to 43.6 nM. Besides, in test [1] (HCOOH salt), the half-inhibitory concentration (IC50) amounted to 0.018 nM.
For the compound `Cc1nc2ccccc2c2c1O[C@]1(CC2)C[C@H]2C(=O)N[C@]3(C(=O)NS(=O)(=O)C4(C)CC4)C[C@H]3/C=C\CCCCC[C@H](NC(=O)NC3CCCC3)C(=O)N2C1` [Example 283, (2R,6S,12Z,13aS,14aR,16aS)-6-[(cyclopentylcarbamoyl)amino]-5′-methyl-N-[(1-methylcyclopropyl)sulfonyl]-5,16-dioxo-1,1′,2′,6,7,8,9,10,11,13a,14,15,16,16a-tetradecahydrospiro[cyclopropa[e]pyrrolo[1,2-a][1,4]diazacyclopentadecine-2,3′-pyrano[2,3-c]quinoline]-14a(5H)-carboxamide], the EC50 in the test with HCV genotype 1b replicon (HCOOH salt) is 19 nM. The IC50 in test [1] (HCOOH salt) was found to be 0.012 nM.
With `Cc1nc2ccccc2c2c1O[C@]1(CC2)C[C@H]2C(=O)N[C@]3(C(=O)NS(=O)(=O)C4(C)CC4)C[C@H]3/C=C\CCCCC[C@H](NC(=O)NCc3ccccc3)C(=O)N2C1` [Example 284, (2R,6S,12Z,13aS,14aR,16aS)-6-[(benzylcarbamoyl)amino]-5′-methyl-N-[(1-methylcyclopropyl)sulfonyl]-5,16-dioxo-1,1′,2′,6,7,8,9,10,11,13a,14,15,16,16a-tetradecahydrospiro[cyclopropa[e]pyrrolo[1,2-a][1,4]diazacyclopentadecine-2,3′-pyrano[2,3-c]quinoline]-14a(5H)-carboxamide], the EC50 in the test on HCV genotype 1b replicon (HCOOH salt) came to 58.7 nM. Further, the IC50 in test [1] (HCOOH salt) is 0.038 nM.
Taken in the same sequence, the figures for `Cc1nc2ccccc2c2c1O[C@]1(CC2)C[C@H]2C(=O)N[C@]3(C(=O)NS(=O)(=O)C4(C)CC4)C[C@H]3/C=C\CCCCC[C@H](NC(=O)NC3CCCCC3)C(=O)N2C1` [Example 285, (2R,6S,12Z,13aS,14aR,16aS)-6-[(cyclohexylcarbamoyl)amino]-5′-methyl-N-[(1-methylcyclopropyl)sulfonyl]-5,16-dioxo-1,1′,2′,6,7,8,9,10,11,13a,14,15,16,16a-tetradecahydrospiro[cyclopropa[e]pyrrolo[1,2-a][1,4]diazacyclopentadecine-2,3′-pyrano[2,3-c]quinoline]-14a(5H)-carboxamide] were 10.3 nM and 0.002 nM.
With `CCNC(=O)N[C@H]1CCCCC/C=C\[C@@H]2C[C@@]2(C(=O)NS(=O)(=O)C2(C)CC2)NC(=O)[C@@H]2C[C@]3(CCc4c(c(C)nc5ccccc45)O3)CN2C1=O` [Example 286, (2R,6S,12Z,13aS,14aR,16aS)-6-[(ethylcarbamoyl)amino]-5′-methyl-N-[(1-methylcyclopropyl)sulfonyl]-5,16-dioxo-1,1′,2′,6,7,8,9,10,11,13a,14,15,16,16a-tetradecahydrospiro[cyclopropa[e]pyrrolo[1,2-a][1,4]diazacyclopentadecine-2,3′-pyrano[2,3-c]quinoline]-14a(5H)-carboxamide], in the test with HCV genotype 1b replicon, the concentration giving a half-maximal response (EC50) came to 119 nM. Besides, the IC50 in test [1] amounted to 0.015 nM.
Regarding `CCCCNC(=O)N[C@H]1CCCCC/C=C\[C@@H]2C[C@@]2(C(=O)NS(=O)(=O)C2(C)CC2)NC(=O)[C@@H]2C[C@]3(CCc4c(c(C)nc5ccccc45)O3)CN2C1=O` [Example 287, (2R,6S,12Z,13aS,14aR,16aS)-6-[(butylcarbamoyl)amino]-5′-methyl-N-[(1-methylcyclopropyl)sulfonyl]-5,16-dioxo-1,1′,2′,6,7,8,9,10,11,13a,14,15,16,16a-tetradecahydrospiro[cyclopropa[e]pyrrolo[1,2-a][1,4]diazacyclopentadecine-2,3′-pyrano[2,3-c]quinoline]-14a(5H)-carboxamide], the EC50 in the test on HCV genotype 1b replicon (HCOOH salt) worked out at 23 nM. Besides, the IC50 in test [1] (HCOOH salt) was 0.013 nM.
For `Cc1nc2ccccc2c2c1O[C@]1(CC2)C[C@H]2C(=O)N[C@]3(C(=O)NS(=O)(=O)C4(C)CC4)C[C@H]3/C=C\CCCCC[C@H](NC(=O)NCCc3ccccc3)C(=O)N2C1` [Example 288, (2R,6S,12Z,13aS,14aR,16aS)-5′-methyl-N-[(1-methylcyclopropyl)sulfonyl]-5,16-dioxo-6-{[(2-phenylethyl)carbamoyl]amino}-1,1′,2′,6,7,8,9,10,11,13a,14,15,16,16a-tetradecahydrospiro[cyclopropa[e]pyrrolo[1,2-a][1,4]diazacyclopentadecine-2,3′-pyrano[2,3-c]quinoline]-14a(5H)-carboxamide], in that order: 614 nM and 0.131 nM.
Regarding `CCN(CC)C(=O)N[C@H]1CCCCC/C=C\[C@@H]2C[C@@]2(C(=O)NS(=O)(=O)C2(C)CC2)NC(=O)[C@@H]2C[C@]3(CCc4c(c(C)nc5ccccc45)O3)CN2C1=O` [Example 289, (2R,6S,12Z,13aS,14aR,16aS)-6-[(diethylcarbamoyl)amino]-5′-methyl-N-[(1-methylcyclopropyl)sulfonyl]-5,16-dioxo-1,1′,2′,6,7,8,9,10,11,13a,14,15,16,16a-tetradecahydrospiro[cyclopropa[e]pyrrolo[1,2-a][1,4]diazacyclopentadecine-2,3′-pyrano[2,3-c]quinoline]-14a(5H)-carboxamide], in the test on HCV genotype 1b replicon (HCOOH salt), the EC50 came to 7 nM. Besides, the IC50 in test [1] (HCOOH salt) worked out at 0.023 nM.
Take `Cc1nc2ccccc2c2c1O[C@]1(CC2)C[C@H]2C(=O)N[C@]3(C(=O)NS(=O)(=O)C4(C)CC4)C[C@H]3/C=C\CCCCC[C@H](NC(=O)N3CCCCC3)C(=O)N2C1` [Example 290, (2R,6S,12Z,13aS,14aR,16aS)-5′-methyl-N-[(1-methylcyclopropyl)sulfonyl]-5,16-dioxo-6-[(piperidin-1-ylcarbonyl)amino]-1,1′,2′,6,7,8,9,10,11,13a,14,15,16,16a-tetradecahydrospiro[cyclopropa[e]pyrrolo[1,2-a][1,4]diazacyclopentadecine-2,3′-pyrano[2,3-c]quinoline]-14a(5H)-carboxamide]: the EC50 with HCV genotype 1b replicon (HCOOH salt) was 7.02 nM. Further, the IC50 in test [1] (HCOOH salt) worked out at 0.017 nM.
For `Cc1nc2ccccc2c2c1O[C@]1(CC2)C[C@H]2C(=O)N[C@]3(C(=O)NS(=O)(=O)C4(C)CC4)C[C@H]3/C=C\CCCCC[C@H](NC(=O)N3CCOCC3)C(=O)N2C1` [Example 291, (2R,6S,12Z,13aS,14aR,16aS)-5′-methyl-N-[(1-methylcyclopropyl)sulfonyl]-6-[(morpholin-4-ylcarbonyl)amino]-5,16-dioxo-1,1′,2′,6,7,8,9,10,11,13a,14,15,16,16a-tetradecahydrospiro[cyclopropa[e]pyrrolo[1,2-a][1,4]diazacyclopentadecine-2,3′-pyrano[2,3-c]quinoline]-14a(5R)-carboxamide], in that order: 84.6 nM and 0.032 nM.
For `Cc1nc2ccccc2c2c1O[C@]1(CC2)C[C@H]2C(=O)N[C@]3(C(=O)NS(=O)(=O)C4(C)CC4)C[C@H]3/C=C\CCCCC[C@H](NC(=O)N(C)c3ccccc3)C(=O)N2C1` [Example 292, (2R,6S,12Z,13aS,14aR,16aS)-5′-methyl-N-[(1-methylcyclopropyl)sulfonyl]-6-{[methyl(phenyl)carbamoyl]amino}-5,16-dioxo-1,1′,2′,6,7,8,9,10,11,13a,14,15,16,16a-tetradecahydrospiro[cyclopropa[e]pyrrolo[1,2-a][1,4]diazacyclopentadecine-2,3′-pyrano[2,3-c]quinoline]-14a(5H)-carboxamide], the EC50 in the test with HCV genotype 1b replicon (HCOOH salt) was found to be 27.4 nM. The half-maximal inhibitory concentration (IC50) in test [1] (HCOOH salt) was 0.077 nM.
For the compound `Cc1nc2ccccc2c2c1O[C@]1(CC2)C[C@H]2C(=O)N[C@]3(C(=O)NS(=O)(=O)C4(C)CC4)C[C@H]3/C=C\CCCCC[C@H](NC(=O)N(C(C)C)C(C)C)C(=O)N2C1` [Example 293, (2R,6S,12Z,13aS,14aR,16aS)-6-{[di(propan-2-yl)carbamoyl]amino}-5′-methyl-N-[(1-methylcyclopropyl)sulfonyl]-5,16-dioxo-1,1′,2′,6,7,8,9,10,11,13a,14,15,16,16a-tetradecahydrospiro[cyclopropa[e]pyrrolo[1,2-a][1,4]diazacyclopentadecine-2,3′-pyrano[2,3-c]quinoline]-14a(5H)-carboxamide], the EC50 with HCV genotype 1b replicon (HCOOH salt) came to 4.87 nM. For the same compound, in test [1] (HCOOH salt), the IC50 stood at 0.021 nM.
